Assay results: patent US20120225061A1, “TETRASUBSTITUTED CYCLOHEXYL COMPOUNDS AS KINASE INHIBITORS” (priority 2011, published 2012)

Assays:
[1] = test system: KMS11 (human myeloma cell line); assay: Cell proliferation assay (CellTiter-Glo) in KMS11 cells; format: cell-based; conditions: KMS-11, 72 h, Table 5, 3 days, read-out: KMS11-luc EC50
Description: KMS11 (human myeloma cell line), were cultured in IMDM supplemented with 10% FBS, sodium pyruvate and antibiotics. Cells were plated in the same medium at a density of 2000 cells per well into 96 well tissue culture plates, with outside wells vacant, on the day of assay.
Test compounds supplied in DMSO were diluted into DMSO at 500 times the desired final concentrations before dilution into culture media to 2 times final concentrations.
After 3 days plates were equilibrated to room temperature and equal volume of CellTiter-Glow Reagent (Promega) was added to the culture wells. The plates were agitated briefly and luminescent signal was measured with luminometer.

[2] = molecular target: Pim1 kinase (Homo sapiens, UniProt P11309); assay: Pim1 AlphaScreen assay (high ATP)
Description: (§1) The activity of Pim 1, Pim 2, & Pim 3 is measured using a homogeneous bead based system quantifying the amount of phosphorylated peptide substrate resulting from kinase-catalyzed phosphoryl transfer to a peptide substrate. Compounds to be tested are dissolved in 100% DMSO and directly distributed to a white 384-well plate at 0.25 μl per well. […] This is followed by the addition of 5 μl/well of Pim 1, Pim 2 or Pim 3 kinase in assay buffer (concentrations described below). Final assay concentrations (described below) are in 2.5% DMSO. The reactions are performed for ˜2 hours, then stopped by the addition of 10 μl of 0.75 μg/ml anti-phospho Ser/Thr antibody (Cell Signaling), 10 μg/ml Protein A AlphaScreen beads (Perkin Elmer), and 10 μg/ml streptavidin coated AlphaScreen beads in stop/detection buffer (50 mM EDTA, 95 mM Tris, pH=7.5, 0.01% Tween-20). The stopped reactions are incubated overnight in the dark. The phosphorylated peptide is detected via an oxygen anion initiated chemiluminescence/fluorescence cascade using the Envision plate reader (Perkin Elmer).

[3] = molecular target: Pim2 kinase (Homo sapiens, UniProt Q9P1W9); assay: Pim2 AlphaScreen assay (high ATP)
Description: as §1

[4] = molecular target: Pim3 kinase (Homo sapiens, UniProt Q86V86); assay: Pim3 AlphaScreen assay (high ATP)
Description: as §1

Sequence of Pim1 kinase (P11309 whole entry): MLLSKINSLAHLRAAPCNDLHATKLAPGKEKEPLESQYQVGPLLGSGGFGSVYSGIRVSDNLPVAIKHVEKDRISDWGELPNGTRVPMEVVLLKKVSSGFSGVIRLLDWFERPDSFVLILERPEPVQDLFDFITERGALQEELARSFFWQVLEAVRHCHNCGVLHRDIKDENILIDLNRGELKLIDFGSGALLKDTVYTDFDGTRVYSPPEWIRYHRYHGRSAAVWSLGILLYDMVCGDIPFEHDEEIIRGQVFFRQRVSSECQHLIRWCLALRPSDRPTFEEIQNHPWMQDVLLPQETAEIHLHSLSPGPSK
Sequence of Pim2 kinase (Q9P1W9 whole entry): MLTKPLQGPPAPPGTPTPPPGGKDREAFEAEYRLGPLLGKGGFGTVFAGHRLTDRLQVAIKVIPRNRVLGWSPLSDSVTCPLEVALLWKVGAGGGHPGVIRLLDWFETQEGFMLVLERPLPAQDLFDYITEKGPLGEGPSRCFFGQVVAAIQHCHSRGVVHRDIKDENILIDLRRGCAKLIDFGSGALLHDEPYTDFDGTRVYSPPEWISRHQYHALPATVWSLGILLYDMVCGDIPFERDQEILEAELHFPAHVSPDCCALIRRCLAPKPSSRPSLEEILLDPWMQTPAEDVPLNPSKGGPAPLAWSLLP

## CC1C[C@@H](c2ccncc2NC(=O)c2ccc(F)c(-c3c(F)cc(Oc4ccncc4)cc3F)n2)C[C@@H](O)[C@]1(C)O (stereo in doubt) [Example 116, 6-(2,6-difluoro-4-(pyridin-4-yloxy)phenyl)-N-(4-((1R,3R,4R,5S)-3,4-dihydroxy-4,5-dimethylcyclohexyl)pyridin-3-yl)-5-fluoropicolinamide]
[1]
  EC50: > 10000 nM
[2]
  IC50: 2.65 nM
[3]
  IC50: 672 nM
[4]
  IC50: 189 nM

## C[C@H]1C[C@@H](c2ccncc2NC(=O)c2ccc(F)c(-c3c(F)cc(C4CCS(=O)(=O)CC4)cc3F)n2)C[C@@H](O)C1(C)O (stereo in doubt) [Example 120, N-(4-((1R,3R,4S,5S)-3,4-dihydroxy-4,5-dimethylcyclohexyl)pyridin-3-yl)-6-(4-(1,1-dioxidotetrahydro-2H-thiopyran-4-yl)-2,6-difluorophenyl)-5-fluoropicolinamide]
[1]
  EC50: 723 nM
[2]
  IC50: 0.26 nM
[3]
  IC50: 48.7 nM
[4]
  IC50: 31.5 nM

## C[C@H]1C[C@@H](c2ccncc2NC(=O)c2ccc(F)c(-c3c(F)cc(CCO)cc3F)n2)C[C@@H](N)[C@]1(C)O [Example 1, N-(4-((1R,3R,4R,5S)-3-amino-4-hydroxy-4,5-dimethylcyclohexyl)pyridin-3-yl)-6-(2,6-difluoro-4-(2-hydroxyethyl)phenyl)-5-fluoropicolinamide]
[1]
  EC50: 20 nM
[2]
  IC50: 0.07 nM
[3]
  IC50: 3.2 nM

## CCc1cc(F)c(-c2nc(C(=O)Nc3cnccc3[C@H]3C[C@@H](N)[C@](C)(O)[C@@H](C)C3)ccc2F)c(F)c1 [Example 2, N-(4-((1R,3R,4R,5S)-3-amino-4-hydroxy-4,5-dimethylcyclohexyl)pyridin-3-yl)-6-(4-ethyl-2,6-difluorophenyl)-5-fluoropicolinamide]
[1]
  EC50: 59 nM
[2]
  IC50: 0.05 nM
[3]
  IC50: 2.68 nM
[4]
  IC50: 1.33 nM

## C[C@H]1C[C@@H](c2ccncc2NC(=O)c2ccc(F)c(-c3c(F)ccc(OCCO)c3F)n2)C[C@@H](N)[C@]1(C)O [Example 3, N-(4-((1R,3R,4R,5S)-3-amino-4-hydroxy-4,5-dimethylcyclohexyl)pyridin-3-yl)-6-(2,6-difluoro-3-(2-hydroxyethoxy)phenyl)-5-fluoropicolinamide]
[1]
  EC50: 126 nM
[2]
  IC50: 0.1 nM
[3]
  IC50: 10.6 nM
[4]
  IC50: 1.94 nM

## COCc1cc(F)c(-c2nc(C(=O)Nc3cnccc3[C@H]3C[C@@H](N)[C@](C)(O)[C@@H](C)C3)ccc2F)c(F)c1 [Example 4, N-(4-((1R,3R,4R,5S)-3-amino-4-hydroxy-4,5-dimethylcyclohexyl)pyridin-3-yl)-6-(2,6-difluoro-4-(methoxymethyl)phenyl)-5-fluoropicolinamide]
[1]
  EC50: 34 nM
[2]
  IC50: 0.09 nM
[3]
  IC50: 4.33 nM
[4]
  IC50: 2.43 nM

## COCCOc1ccc(F)c(-c2nc(C(=O)Nc3cnccc3[C@H]3C[C@@H](N)[C@](C)(O)[C@@H](C)C3)ccc2F)c1F [Example 6, N-(4-((1R,3R,4R,5S)-3-amino-4-hydroxy-4,5-dimethylcyclohexyl)pyridin-3-yl)-6-(2,6-difluoro-3-(2-methoxyethoxy)phenyl)-5-fluoropicolinamide]
[1]
  EC50: 202 nM
[2]
  IC50: 0.14 nM
[3]
  IC50: 24.9 nM
[4]
  IC50: 2.4 nM

## CC[C@]1(O)[C@H](N)C[C@H](c2ccncc2NC(=O)c2ccc(F)c(-c3c(F)cccc3F)n2)C[C@@H]1C [Example 11, N-(4-((1R,3R,4R,5S)-3-amino-4-ethyl-4-hydroxy-5-methylcyclohexyl)pyridin-3-yl)-6-(2,6-difluorophenyl)-5-fluoropicolinamide]
[2]
  IC50: 0.13 nM
[3]
  IC50: 8.1 nM
[4]
  IC50: 1.43 nM

## CC[C@]1(O)[C@H](C)C[C@H](c2ccncc2NC(=O)c2ccc(F)c(-c3c(F)cccc3F)n2)C[C@@H]1N [Example 12, N-(4-((1S,3S,4S,5R)-3-amino-4-ethyl-4-hydroxy-5-methylcyclohexyl)pyridin-3-yl)-6-(2,6-difluorophenyl)-5-fluoropicolinamide]
[2]
  IC50: 26.2 nM
[3]
  IC50: 1440 nM
[4]
  IC50: 303 nM

## COc1cc(F)c(-c2nc(C(=O)Nc3cnccc3[C@H]3C[C@@H](N)[C@](C)(O)[C@@H](C)C3)ccc2F)c(F)c1 [Example 15, N-(4-((1R,3R,4R,5S)-3-amino-4-hydroxy-4,5-dimethylcyclohexyl)pyridin-3-yl)-6-(2,6-difluoro-4-methoxyphenyl)-5-fluoropicolinamide]
[2]
  IC50: 0.08 nM
[3]
  IC50: 6 nM
[4]
  IC50: 1.04 nM

## COc1cc(F)c(-c2nc(C(=O)Nc3cnccc3[C@H]3C[C@@H](C)[C@](C)(O)[C@@H](N)C3)ccc2F)c(F)c1 [Example 16, N-(4-((1S,3S,4S,5R)-3-amino-4-hydroxy-4,5-dimethylcyclohexyl)pyridin-3-yl)-6-(2,6-difluoro-4-methoxyphenyl)-5-fluoropicolinamide]
[2]
  IC50: 4.25 nM
[3]
  IC50: 780 nM
[4]
  IC50: 73 nM

## C[C@@H]1C[C@H](c2ccncc2NC(=O)c2nc(-c3c(F)cccc3F)ccc2N)C[C@H](O)[C@]1(O)CF [Example 17, 3-amino-6-(2,6-difluorophenyl)-N-(4-((1S,3S,4S,5R)-4-(fluoromethyl)-3,4-dihydroxy-5-methylcyclohexyl)pyridin-3-yl) picolinamide]
[2]
  IC50: 28.4 nM
[3]
  IC50: 4650 nM
[4]
  IC50: 646 nM

## C[C@H]1C[C@@H](c2ccncc2NC(=O)c2nc(-c3c(F)cccc3F)c(F)cc2N)C[C@@H](O)[C@@]1(O)CF [Example 23, 3-amino-6-(2,6-difluorophenyl)-5-fluoro-N-(4-((1R,3R,4R,5S)-4-(fluoromethyl)-3,4-dihydroxy-5-methylcyclohexyl)pyridin-3-yl) picolinamide]
[2]
  IC50: 0.58 nM
[3]
  IC50: 28.6 nM
[4]
  IC50: 10.1 nM

## C[C@@H]1C[C@H](c2ccncc2NC(=O)c2nc(-c3c(F)cccc3F)c(F)cc2N)C[C@H](O)[C@]1(O)CF [Example 24, 3-amino-6-(2,6-difluorophenyl)-5-fluoro-N-(4-((1S,3S,4S,5R)-4-(fluoromethyl)-3,4-dihydroxy-5-methylcyclohexyl)pyridin-3-yl) picolinamide]
[2]
  IC50: 22.1 nM
[3]
  IC50: 4940 nM
[4]
  IC50: 786 nM

## C[C@H]1C[C@@H](c2ccncc2NC(=O)c2ccc(F)c(-c3c(F)cc(C4COC4)cc3F)n2)C[C@@H](N)[C@]1(C)O [Example 63, N-(4-((1R,3R,4R,5S)-3-amino-4-hydroxy-4,5-dimethylcyclohexyl)pyridin-3-yl)-6-(2,6-difluoro-4-(oxetan-3-yl)phenyl)-5-fluoropicolinamide]
[1]
  EC50: 84 nM
[3]
  IC50: 5.73 nM

## C[C@H]1C[C@@H](c2ccncc2NC(=O)c2nc(-c3c(F)cccc3F)sc2N)C[C@@H](N)[C@]1(C)O [Example 68, 5-amino-N-(4-((1R,3R,4R,5S)-3-amino-4-hydroxy-4,5-dimethylcyclohexyl)pyridin-3-yl)-2-(2,6-difluorophenyl)thiazole-4-carboxamide]
[1]
  EC50: 24 nM
[3]
  IC50: 3.02 nM

## CCOCc1cc(F)c(-c2nc(C(=O)Nc3cnccc3[C@H]3C[C@@H](N)[C@](C)(O)[C@@H](C)C3)ccc2F)c(F)c1 [Example 72, N-(4-((1R,3R,4R,5S)-3-amino-4-hydroxy-4,5-dimethylcyclohexyl)pyridin-3-yl)-6-(4-(ethoxymethyl)-2,6-difluorophenyl)-5-fluoropicolinamide]
[1]
  EC50: 98 nM
[3]
  IC50: 4 nM

## C[C@H]1C[C@@H](c2ccncc2NC(=O)c2ccc(F)c(-c3c(F)cc(C4(O)CCOCC4)cc3F)n2)C[C@@H](O)[C@]1(C)O [Example 110, 6-(2,6-difluoro-4-(4-hydroxytetrahydro-2H-pyran-4-yl)phenyl)-N-(4-((1R,3R,4R,5S)-3,4-dihydroxy-4,5-dimethylcyclohexyl)pyridin-3-yl)-5-fluoropicolinamide]
[1]
  EC50: 322 nM

## CC(C)c1cc(F)c(-c2nc(C(=O)Nc3cnccc3[C@H]3C[C@@H](N)[C@](C)(O)[C@@H](C)C3)ccc2F)c(F)c1 [Example 117, N-(4-((1R,3R,4R,5S)-3-amino-4-hydroxy-4,5-dimethylcyclohexyl)pyridin-3-yl)-6-(2,6-difluoro-4-isopropylphenyl)-5-fluoropicolinamide]
[1]
  EC50: 256 nM
[2]
  IC50: 0.02 nM
[3]
  IC50: 1.39 nM

## C[C@H]1C[C@@H](c2ccncc2NC(=O)c2ccc(F)c(-c3c(F)cc(C4CCS(=O)(=O)CC4)cc3F)n2)C[C@@H](N)[C@]1(C)O [Example 119, N-(4-((1R,3R,4R,5S)-3-amino-4-hydroxy-4,5-dimethylcyclohexyl)pyridin-3-yl)-6-(4-(1,1-dioxidotetrahydro-2H-thiopyran-4-yl)-2,6-difluorophenyl)-5-fluoropicolinamide]
[1]
  EC50: 578 nM
[3]
  IC50: 1.53 nM

## C[C@H]1C[C@@H](c2ccncc2NC(=O)c2nc(-c3cccc(OC(F)F)n3)ccc2N)C[C@@H](O)[C@]1(C)O [Example 123, 5-amino-6′-(difluoromethoxy)-N-(4-((1R,3R,4R,5S)-3,4-dihydroxy-4,5-dimethylcyclohexyl)pyridin-3-yl)-2,2′-bipyridine-6-carboxamide]
[2]
  IC50: 35.2 nM
[3]
  IC50: 20200 nM
[4]
  IC50: 454 nM

## C[C@H]1C[C@@H](c2ccncc2NC(=O)c2nc(-c3cccc(OCC(F)(F)F)n3)ccc2N)C[C@@H](O)[C@]1(C)O [Example 124, 5-amino-N-(4-((1R,3R,4R,5S)-3,4-dihydroxy-4,5-dimethylcyclohexyl)pyridin-3-yl)-6′-(2,2,2-trifluoroethoxy)-2,2′-bipyridine-6-carboxamide]
[2]
  IC50: 21.7 nM
[3]
  IC50: > 25000 nM
[4]
  IC50: 736 nM
